Patent US10695296B2, “Formulations, methods, kit, and dosage forms for improved stability of an active pharmaceutical ingredient” (Asana BioSciences, LLC, priority 2017, dated 2020)
Where “and” joins values, the source holds several entries; their conditions need not be identical. Equal entries are not always repeated. Where two headings read alike, the source gives them in different places.

Assay: PK characteristics in humans (plasma, LC/MS/MS)
Assay type: in vivo, human
Conditions: for accumulation: cancer patients; for dose dependence of Cmax and AUC: 10-400 mg QD and 400 mg BID; for half-life: read-out: T1/2 (converted)
Procedure: A pharmaceutical formulation of the disclosure comprising the active ingredient N-(3-(2-(6-amino-4-(trifluoromethyl)pyridin-3-yl)-4-morpholinopyrido[3,2-d]pyrimidin-6-yl)-2-fluorophenyl)-3-fluoropropane-1-sulfonamide was evaluated for safety/tolerability and preliminary efficacy in eligible human subjects with advanced solid tumors, and the pharmacokinetic (PK) profile of the active ingredient was investigated for each subject. Eligibility criteria for inclusion in this study included:
Fifteen eligible patients were enrolled in total daily dose levels ranging from 10-800 mg per day of the active ingredient, provided as 10-mg, 20-mg, 80-mg and 120-mg tablets for oral administration. Dose escalation is ongoing. All study medication supplies were provided by Asana BioSciences, LLC (Bridgewater, N.J.). The tablets were administered orally every 12-24 hours on an empty stomach (either 1 hour before or 2 hours after a meal or snack) with approximately 240 mL of water. On study days in which there was a single plasma PK sample taken, the subject was instructed to fast for at least 2 hours prior to collection of the PK sample. On study days with multiple plasma PK samples taken, the subject was instructed to fast overnight (at least 8 hours prior to study drug administration) and remain fasting for 2 hours after study drug administration. The date and time of the dose(s) taken prior to or on PK sampling days were collected by the study site or catalogued via a diary card provided to the subject.
An ultra performance liquid chromatographic method was used for the determination of the active ingredient in human EDTA K2 plasma. This method was validated over an analytical range of 0.5 to 500 ng/mL. Calibration standards (CS) and quality control (QC) samples at three or four levels of concentrations were prepared fresh from the appropriate working solutions which were stored at −20° C. The human EDTA K2 plasma used for the preparation of CS and QC samples was obtained from Bioreclamation (Westbury, Pa., USA) and analyzed to determine possible interference with the analyte or the internal standard, and no significant interference was observed. The following parameters were used to determine analyte levels in the plasma samples: […]

[1] = Day 1, 40 mg, individual subjects
[2] = Day 1, 80 mg, individual subjects
[3] = Day 1, 240 mg, individual subjects
[4] = Day 1, 400 QD mg, individual subjects
[5] = Day 1, 400 bid mg, individual subjects
[6] = Day 15, 40 mg, individual subjects
[7] = Day 15, 80 mg, individual subjects
[8] = Day 15, 240 mg, individual subjects
[9] = Day 15, 400 QD mg, individual subjects
[10] = human subjects, listed as active ingredient

Q: With Nc1cc(C(F)(F)F)c(-c2nc(N3CCOCC3)c3nc(-c4cccc(NS(=O)(=O)CCCF)c4F)ccc3n2)cn1 [CMPD A, N-(3-(2-(6-amino-4-(trifluoromethyl)pyridin-3-yl)-4-morpholinopyrido[3,2-d]pyrimidin-6-yl)-2-fluorophenyl)-3-fluoropropane-1-sulfonamide] as the molecule, how does the accumulation (BID administration) read?
A: ~3 fold

Q: And the AUC0-24 [1]?
A: 1400 ng·h/mL and 5510 ng·h/mL

Q: What about the Cmax [1] of the same molecule?
A: 96.2 ng/mL and 289 ng/mL

Q: What about the T1/2 [1] of the same molecule?
A: 17.6 h

Q: What about the AUC0-24 [2] of the same molecule?
A: 8090 ng·h/mL and 4010 ng·h/mL

Q: What about the Cmax [2] of the same molecule?
A: 300 ng/mL

Q: What about the Tmax [2] of the same molecule?
A: 24 h

Q: And the AUC0-24 [3]?
A: 9560 ng·h/mL and 4300 ng·h/mL

Q: And the Cmax [3]?
A: 744 ng/mL and 295 ng/mL

Q: And the T1/2 [3]?
A: 23.9 h and 11.0 h

Q: What about the AUC0-24 [4] of the same molecule?
A: 3200 ng·h/mL and 26700 ng·h/mL

Q: What about the Cmax [4] of the same molecule?
A: 264 ng/mL and 1870 ng/mL

Q: And the T1/2 [4]?
A: 15.6 h

Q: What about the AUC0-24 [5] of the same molecule?
A: 20400 ng·h/mL

Q: And the Cmax [5]?
A: 1430 ng/mL

Q: What about the T1/2 [5] of the same molecule?
A: 15.0 h

Q: And the RAUCtau (Day 15, 10 mg, n=1)?
A: 1.5

Q: And the RCmax (Day 15, 10 mg, n=1)?
A: 1.3

Q: And the RAUCtau (Day 15, 20 mg, n=1)?
A: 2.1

Q: And the RCmax (Day 15, 20 mg, n=1)?
A: 1.5

Q: What about the AUC0-24 [6] of the same molecule?
A: 2580 ng·h/mL and 9190 ng·h/mL

Q: What about the Cmax [6] of the same molecule?
A: 173 ng/mL and 523 ng/mL

Q: What about the RAUCtau [6] of the same molecule?
A: 1.9 and 2.3

Q: What about the RCmax [6] of the same molecule?
A: 1.8, 1.8

Q: And the T1/2 [6]?
A: 22.5 h and 47.8 h

Q: What about the AUC0-24 [7] of the same molecule?
A: 21300 ng·h/mL

Q: And the Cmax [7]?
A: 1179 ng/mL

Q: What about the RAUCtau [7] of the same molecule?
A: 2.4 and 5.3

Q: What about the RCmax [7] of the same molecule?
A: 2.0 and 4.0

Q: What about the Tmax [7] of the same molecule?
A: 24 h

Q: And the RAUCtau (Day 15, 120 mg, n=3, range)?
A: 1.2-1.9

Q: What about the RCmax (Day 15, 120 mg, n=3, range) of the same molecule?
A: 0.8-2.4

Q: And the AUC0-24 [8]?
A: 26000 ng·h/mL and 3740 ng·h/mL

Q: And the Cmax [8]?
A: 1610 ng/mL and 299 ng/mL

Q: What about the RAUCtau [8] of the same molecule?
A: 2.7 and 0.9

Q: What about the RCmax [8] of the same molecule?
A: 2.2 and 1.0

Q: And the T1/2 [8]?
A: 29.0 h and 10.3 h

Q: And the Tmax [8]?
A: (2, 2) hr

Q: What about the AUC0-24 [9] of the same molecule?
A: 41300 ng·h/mL

Q: And the Cmax [9]?
A: 2930 ng/mL

Q: And the RAUCtau [9]?
A: 8.0 and 1.55

Q: What about the RCmax [9] of the same molecule?
A: 10.5 and 1.57

Q: What about the T1/2 [9] of the same molecule?
A: 11.7 h

Q: And the Tmax [9]?
A: 1 h

Q: What about the RAUCtau (Day 15, 400 bid mg, n=1) of the same molecule?
A: 3.76

Q: What about the RCmax (Day 15, 400 bid mg, n=1) of the same molecule?
A: 2.53

Q: And the accumulation (QD administration)?
A: ~2 fold

Q: And the “variability of pharmacokinetic parameters” value (human subjects)?
A: Moderate to high inter-and intra-subject variability

Q: What about the “dose dependence of Cmax and AUC” value (human subjects) of the same molecule?
A: Dose-dependent Cmax and AUC

Q: What about the “dose dependence of Cmax and AUC” value [10] of the same molecule?
A: generally dose-dependent Cmax and AUC

Q: What about the “accumulation in AUC at steady state” value (human subjects, oral tablets) of the same molecule?
A: approximately 2 fold

Q: What about the “t1/2 (rate of elimination)” value (human subjects, oral tablets) of the same molecule?
A: Moderate rate of elimination (t1/2 10-25 hours)

Q: What about the “variability of pharmacokinetic parameters” value [10] of the same molecule?
A: moderate inter-subject variability

Q: And the AUC(0-t) (human, plasma, oral, 10 mg, Day 1, 10 mg, n=1, read-out: AUC0-24)?
A: 622 ng·h/mL

Q: What about the Cmax (human, plasma, oral, 10 mg, Day 1, 10 mg, n=1, read-out: Cmax) of the same molecule?
A: 58 ng/mL

Q: What about the half-life (human, plasma, oral, 10 mg, Day 1, 10 mg, n=1) of the same molecule?
A: 16.1 h

Q: What about the Tmax (human, plasma, oral, 10 mg, Day 1, 10 mg, n=1, read-out: Tmax) of the same molecule?
A: 4 h

Q: And the AUC(0-t) (human, plasma, oral, 10 mg, Day 15, 10 mg, n=1, read-out: AUC0-24)?
A: 912 ng·h/mL

Q: And the Cmax (human, plasma, oral, 10 mg, Day 15, 10 mg, n=1, read-out: Cmax)?
A: 74 ng/mL

Q: And the Tmax (human, plasma, oral, 10 mg, Day 15, 10 mg, n=1, read-out: Tmax)?
A: 4 h

Q: And the AUC(0-t) (human, plasma, oral, 10 mg, steady state, 10 QD mg, n=1, cancer patients, read-out: AUC0-24h)?
A: 912 ng·h/mL

Q: And the Cmax (human, plasma, oral, 10 mg, steady state, 10 QD mg, n=1, cancer patients, read-out: Cmax)?
A: 74 ng/mL

Q: What about the Tmax (human, plasma, oral, 10 mg, steady state, 10 QD mg, n=1, cancer patients, read-out: Tmax) of the same molecule?
A: 4 h

Q: And the AUC(0-t) (human, plasma, oral, 20 mg, Day 1, 20 mg, n=1, read-out: AUC0-24)?
A: 1480 ng·h/mL

Q: And the Cmax (human, plasma, oral, 20 mg, Day 1, 20 mg, n=1, read-out: Cmax)?
A: 101 ng/mL

Q: What about the half-life (human, plasma, oral, 20 mg, Day 1, 20 mg, n=1) of the same molecule?
A: 13.7 h

Q: And the Tmax (human, plasma, oral, 20 mg, Day 1, 20 mg, n=1, read-out: Tmax)?
A: 8 h

Q: And the AUC(0-t) (human, plasma, oral, 20 mg, Day 15, 20 mg, n=1, read-out: AUC0-24)?
A: 3160 ng·h/mL

Q: And the Cmax (human, plasma, oral, 20 mg, Day 15, 20 mg, n=1, read-out: Cmax)?
A: 149 ng/mL

Q: What about the half-life (human, plasma, oral, 20 mg, Day 15, 20 mg, n=1) of the same molecule?
A: 127 h

Q: What about the Tmax (human, plasma, oral, 20 mg, Day 15, 20 mg, n=1, read-out: Tmax) of the same molecule?
A: 8 h

Q: And the AUC(0-t) (human, plasma, oral, 20 mg, steady state, 20 QD mg, n=1, cancer patients, read-out: AUC0-24h)?
A: 3160 ng·h/mL

Q: What about the Cmax (human, plasma, oral, 20 mg, steady state, 20 QD mg, n=1, cancer patients, read-out: Cmax) of the same molecule?
A: 149 ng/mL

Q: And the Tmax (human, plasma, oral, 20 mg, steady state, 20 QD mg, n=1, cancer patients, read-out: Tmax)?
A: 8 h

Q: And the half-life (human, plasma, oral, 40 mg, Day 1, 40 mg, individual subjects)?
A: 18.2 h

Q: What about the AUC(0-t) (human, plasma, oral, 40 mg, Day 1, 40 mg, n=2, mean, read-out: AUC0-24) of the same molecule?
A: 2670 ng·h/mL

Q: What about the Cmax (human, plasma, oral, 40 mg, Day 1, 40 mg, n=2, mean, read-out: Cmax) of the same molecule?
A: 192 ng/mL

Q: And the half-life (human, plasma, oral, 40 mg, Day 1, 40 mg, n=2, mean)?
A: 17.9 h

Q: What about the Tmax (human, plasma, oral, 40 mg, Day 1, 40 mg, n=2, mean, read-out: Tmax) of the same molecule?
A: 5 h

Q: And the Tmax (human, plasma, oral, 40 mg, Day 15, 40 mg, individual subjects, read-out: Tmax)?
A: 4 h

Q: What about the AUC(0-t) (human, plasma, oral, 40 mg, Day 15, 40 mg, n=2, mean, read-out: AUC0-24) of the same molecule?
A: 5890 ng·h/mL
